From patent US5885786A, “Methods for screening of substances for inhibition of multidrug resistance” (priority 1996, dated 1999)
Entries after “also recorded” stand apart in the source; their conditions may differ.

Experiments:
[1] = system: human melanoma cell lines (M101, M10 and M24); assay: Formation of glycosylceramide in human metastatic melanoma cell lines M101, M10 and M24; format: cell-based; conditions: 5.0 μM tamoxifen, 24 h, FIG. 17
Description: FIG. 17. […] Identical aliquots of total lipid extract were applied to TLC, and the plate was exposed for autoradiography.

[2] = system: P-glycoprotein; conditions: literature; cited from earlier work
[3] = system: MCF-7-AdrR cells; assay: Temporal pattern of tamoxifen influence on total lipid, glycosylceramide, sphingomyelin and ceramide metabolism; format: cell-based
Procedure: FIG. 13A, FIG. 13B and FIG. 13C. Temporal Pattern for the Influence of Tamoxifen on Total Lipid, Glycosylceramide, and Sphingomyelin Metabolism in MCF-7-AdrR Cells. Cells, preincubated in the absence or presence of tamoxifen (20 μM) for 30 min, were labeled by addition of 1.0 μCi/ml [^3 H]palmitic acid for the times shown using RPMI-1640 medium containing 5% FBS. At each time point, cultures were washed with PBS and lipids were extracted as described under Example I. Aliquots of the labeling medium were counted directly by liquid scintillation spectrometry to determine [^3 H]palmitic acid uptake and incorporation into total cell lipids (FIG. 13A). Glycosylceramide (FIG. 13B) and sphingomyelin (FIG. 13C) levels were evaluated by TLC using solvent system I and II, respectively, followed by quantitation of radiolabel in the relevant regions as detailed in Example I. Results are the mean±SEM of duplicate determinations from two separate experiments.
FIG. 14A and FIG. 14B. Effect of Tamoxifen on Ceramide Synthesis and Glycosylation in MCF-7-AdrR Cells. FIG. 14: A Influence of tamoxifen on ceramide synthesis. The experiment was conducted as described in the legend to FIG. 13. Aliquots of the total lipid extract were based-hydrolyzed as described in Example I, separated by TLC using solvent system IV, and the resolved [^3 H]ceramide was quantitated by liquid scintillation spectrometry. Results are the mean±SEM of duplicate determinations from two separate experiments. FIG. 14B: Effect of tamoxifen on glycosylation of C6 -ceramide. Cells, in 100×20 mm culture dishes, were preincubated without or with 5.0 μM tamoxifen for 30 min, followed by incubation without or with 5.0 μM C6 -ceramide:BSA (prepared at a 1:1 molar ratio) for an additional 30 min. Cells were labeled thereafter with 1.0 μCi/ml [^3 H]galactose for 24 h. [3H]Galactose uptake was determined and found to be similar in all experimental points (1.0×10^6 cpm/dish). The total extracted lipid was applied to TLC separation and [^3 H]glycosphingolipids were analyzed as described in the legend to FIG. 10. The autoradiography of a representative chromatogram is shown.
Lipid analysis was carried out by TLC using solvent system I: chloroform/methanol/ammonium hydroxide (40:10:1, v/v) for glycosylceramide separation, solvent system II: chloroform/methanol/water (60:40:8, v/v) for sphingoglycolipid separation, or solvent system III: chloroform/methanol/acetic acid/water (50:30:7:3, v/v) for sphingomyelin separation. For determination of ceramides, an aliquot of the chloroform-soluble lipids was base-hydrolyzed in 0.1N KOH in methanol for 1 h at 37° C., lipids were re-extracted, and separated by TLC using solvent system IV: hexane/diethyl ether/formic acid (60:40:1, v/v).
Radiochromatograms were sprayed with EN^3 HANCE, and exposed for 3-7 days for autofluorgraphy. TLC areas, aligned with bands on the autoradiographs or with iodine-stained commercial lipid standards, were scraped from the plate. Water (0.5 ml) was added to the plate scrapings followed by 4.5 ml of EcoLume counting fluid, and the samples were quantitated by liquid scintillation spectrometry.

SMILES: CC/C(=C(\c1ccccc1)c1ccc(OCCN(C)C)cc1)c1ccccc1 [tamoxifen]
- inhibition of glucosylceramide formation (in words) [1]: inhibition of glucosylceramide formation
- binding to P-glycoprotein (in words) [2]: direct binding to P-glycoprotein
- inhibition of glycosylceramide synthesis within 4 h (in words) ([3]; tamoxifen 20 μM, 4 h time frame, FIG. 13B): almost completely inhibited
- uptake and incorporation of [3H]palmitic acid (in words) ([3]; tamoxifen 20 μM, FIG. 13A): very similar
- onset of glycosylceramide formation inhibition ([3]; tamoxifen 20 μM, FIG. 13B): 15 min
- time of half-maximal influence on glycosylceramide formation ([3]; tamoxifen 20 μM, FIG. 13B): 45 min
- sphingomyelin synthesis (in words) ([3]; tamoxifen 20 μM, FIG. 13C): not influenced; also recorded: not altered
- level of ceramide / ceramide synthesis (in words) ([3]; tamoxifen, FIG. 14A): remained unchanged; also recorded: very similar
